Laboratory results: patent US20160209428A1, “DIAGNOSTIC AND PREDICTIVE METABOLITE PATTERNS FOR DISORDERS AFFECTING THE BRAIN AND NERVOUS SYSTEM” (THE REGENTS OF THE UNIVERSITY OF CALIFORNIA, priority 2013, published 2016)

How the values were obtained:
[1] = system: Fragile X (Fmr1) knockout mouse; assay: Social preference and social novelty, Fragile X model; format: in vivo; conditions: male Fmr1 KO mice, weekly suramin 20 mg/kg ip
Source text: A Fragile X (Fmr1) knockout mouse was used on the FVB strain background. It has the genotype: FVB.129P2-Pde6b^+ Tyr^c-ch Fmr1^tm1Cgr/J (Jackson Stock #004624). The Fmr1^tm1Cgr allele contains a neomycin resistance cassette replacing exon 5 that results in a null allele that makes no FMR mRNA or protein. The control strain used has the genotype: FVB.129P2-Pde6b^+ Tyr^c-ch/AntJ (Jackson Stock #004828). […] The wild-type Pde6b locus from the 129P2 ES cells corrects the retinal degeneration phenotype that produces blindness by 5 weeks of age in typical FVB mice. The Fmr1 locus is X-linked, so males are hemizygous and females are homozygous for the knockout. A metabolomic analysis on Fmr1 knockout mice on the C57BL/6J background was also performed to refine the understanding of which metabolic disturbances were directly related to the Fmr1 knockout, and which were the result of changes in genetic background. For these studies the same Fmr1^tm1Cgr knockout allele bred on the C57BL6/J background was used. These animals had the genotype: B6.129P2-Fmr1^tm1Cgr/J (Jackson Stock#003025). […]
Altered social behavior is a measure of autism-like features in mouse models of autism. […] There was also a 35% reduction in social novelty, as measured by the time spent interacting with a novel mouse compared to a familiar mouse. […]

[2] = system: cerebral synaptosomal protein; assay: Western blot analysis of cerebral synaptosomal proteins, Fragile X model; format: in vivo, mouse; conditions: Fmr1 KO mice
Source text: Twenty μg of cerebral synaptosomal protein was loaded in SDS-polyacrylamide gels (Bis-Tris Gels) and transferred to PVDF membranes. The blots were first stained with Ponceau S, scanned, and the transfer efficiency was quantified by densitometry before blocking with 3% skim milk, and probing with primary and secondary antibodies for signal development by enhanced chemiluminescence (ECL).

[3] = cerebral synaptosomes, suramin vs saline
[4] = cerebral synaptosomes, listed as suramin

Cc1ccc(C(=O)Nc2ccc(S(=O)(=O)O)c3cc(S(=O)(=O)O)cc(S(=O)(=O)O)c23)cc1NC(=O)c1cccc(NC(=O)Nc2cccc(C(=O)Nc3cc(C(=O)Nc4ccc(S(=O)(=O)O)c5cc(S(=O)(=O)O)cc(S(=O)(=O)O)c45)ccc3C)c2)c1 [Suramin, suramin]
altered social behavior (social preference, social novelty) [1]: corrected
proteins interrogated in cerebral synaptosomes that were changed ([2]; suramin vs saline): 17 of 54
Response to Suramin KO-Sur/KO-Sal: 7-dehydrocholesterol reductase/7DHCR ([2]; cerebral synaptosomes): Up
Response to Suramin KO-Sur/KO-Sal: APC ([2]; cerebral synaptosomes): Down
Response to Suramin KO-Sur/KO-Sal: Acetyl-CoA acetyltransferase 2/ACAT2 ([2]; cerebral synaptosomes): None
Response to Suramin KO-Sur/KO-Sal: Akt ([2]; cerebral synaptosomes): decreased and Down
Response to Suramin KO-Sur/KO-Sal: Amyloid β (Aβ) precursor protein/APP ([2]; cerebral synaptosomes): Down
Response to Suramin KO-Sur/KO-Sal: C1qA ([2]; cerebral synaptosomes): Down
Response to Suramin KO-Sur/KO-Sal: CB1 ([2]; cerebral synaptosomes): Down
Response to Suramin KO-Sur/KO-Sal: CB2 ([2]; cerebral synaptosomes): unchanged and None
Response to Suramin KO-Sur/KO-Sal: CPY27A1 ([2]; cerebral synaptosomes): None
Response to Suramin KO-Sur/KO-Sal: Dopamine Receptor D4/D4R ([2]; cerebral synaptosomes): None
Response to Suramin KO-Sur/KO-Sal: ETFQO/ETFDH ([2]; cerebral synaptosomes): None
Response to Suramin KO-Sur/KO-Sal: Fragile X mental retardation protein/FMRP ([2]; cerebral synaptosomes): None
Response to Suramin KO-Sur/KO-Sal: GABA A Receptor beta 3/GABA-β3 ([2]; cerebral synaptosomes): None
Response to Suramin KO-Sur/KO-Sal: GluR1 ([2]; cerebral synaptosomes): Down
Response to Suramin KO-Sur/KO-Sal: HMGCoA Reductase/HMOCoAR ([2]; cerebral synaptosomes): None
Response to Suramin KO-Sur/KO-Sal: IP3R I ([2]; cerebral synaptosomes): Up
Response to Suramin KO-Sur/KO-Sal: Indoleamine 2,3-dioxygenase 1/IDO-1 ([2]; cerebral synaptosomes): None
Response to Suramin KO-Sur/KO-Sal: Metabotropic glutamate receptor 5/mGluR5 ([2]; cerebral synaptosomes): no effect and None
Response to Suramin KO-Sur/KO-Sal: Methionine Sulfoxide Reductase A/MSRA ([2]; cerebral synaptosomes): None
Response to Suramin KO-Sur/KO-Sal: Nicotinic Acetylcholine Receptor alpha 7/nAchR7 ([2]; cerebral synaptosomes): None
Response to Suramin KO-Sur/KO-Sal: Nitro Tyrosine ([2]; cerebral synaptosomes): None
Response to Suramin KO-Sur/KO-Sal: P2X1 ([2]; cerebral synaptosomes): None
Response to Suramin KO-Sur/KO-Sal: P2X2 ([2]; cerebral synaptosomes): None
Response to Suramin KO-Sur/KO-Sal: P2X3R ([2]; cerebral synaptosomes): Down
Response to Suramin KO-Sur/KO-Sal: P2X4 ([2]; cerebral synaptosomes): None
Response to Suramin KO-Sur/KO-Sal: P2X5 ([2]; cerebral synaptosomes): None
Response to Suramin KO-Sur/KO-Sal: P2X6 ([2]; cerebral synaptosomes): None
Response to Suramin KO-Sur/KO-Sal: P2X7 ([2]; cerebral synaptosomes): None
Response to Suramin KO-Sur/KO-Sal: P2Y1R ([2]; cerebral synaptosomes): Up
Response to Suramin KO-Sur/KO-Sal: P2Y2 ([2]; cerebral synaptosomes): None
Response to Suramin KO-Sur/KO-Sal: P2Y4 ([2]; cerebral synaptosomes): None
Response to Suramin KO-Sur/KO-Sal: PGC1a ([2]; cerebral synaptosomes): None
Response to Suramin KO-Sur/KO-Sal: PI3K ([2]; cerebral synaptosomes): decreased and Down
Response to Suramin KO-Sur/KO-Sal: PKC ([2]; cerebral synaptosomes): None
Response to Suramin KO-Sur/KO-Sal: PPAR beta/delta ([2]; cerebral synaptosomes): Up
Response to Suramin KO-Sur/KO-Sal: PPARa ([2]; cerebral synaptosomes): no effect and None
Response to Suramin KO-Sur/KO-Sal: Postsynaptic Density protein 95/PSD95 ([2]; cerebral synaptosomes): None
Response to Suramin KO-Sur/KO-Sal: Steroidogenic acute regulatory protein/StAR ([2]; cerebral synaptosomes): Up
Response to Suramin KO-Sur/KO-Sal: TAR DNA-binding protein 43/TDP43 ([2]; cerebral synaptosomes): Down
Response to Suramin KO-Sur/KO-Sal: TGFβ Receptor I ([2]; cerebral synaptosomes): None
Response to Suramin KO-Sur/KO-Sal: mTOR ([2]; cerebral synaptosomes): not observed and None
Response to Suramin KO-Sur/KO-Sal: nAchR beta2 ([2]; cerebral synaptosomes): None
Response to Suramin KO-Sur/KO-Sal: p-eIF2α(Ser51) ([2]; cerebral synaptosomes): None
Response to Suramin KO-Sur/KO-Sal: p-mTOR(ser2448) ([2]; cerebral synaptosomes): not observed and None
Response to Suramin KO-Sur/KO-Sal: pAkt(Ser473) ([2]; cerebral synaptosomes): None
Response to Suramin KO-Sur/KO-Sal: pAkt(Thr308) ([2]; cerebral synaptosomes): None
Response to Suramin KO-Sur/KO-Sal: pCAMKII(Thr286) ([2]; cerebral synaptosomes): None
Response to Suramin KO-Sur/KO-Sal: pERK1/2(Thr202/Tyr204) ([2]; cerebral synaptosomes): None
Response to Suramin KO-Sur/KO-Sal: pGSK3β (Ser9) ([2]; cerebral synaptosomes): Up
Response to Suramin KO-Sur/KO-Sal: pPERK(Thr980) ([2]; cerebral synaptosomes): None
Response to Suramin KO-Sur/KO-Sal: pPKC(Ser660) ([2]; cerebral synaptosomes): None
Response to Suramin KO-Sur/KO-Sal: pS6K(Thr389) ([2]; cerebral synaptosomes): Up
Response to Suramin KO-Sur/KO-Sal: pSTAT3(ser727) ([2]; cerebral synaptosomes): None
decrease of CB1 receptor expression [2, 3]: 16%
decrease of P2X3 receptor expression [2, 3]: 18%
decrease of ionotropic GluR1 expression [2, 3]: 15%
decrease of synaptosomal APP levels [2, 3]: 23%
decrease of synaptosomal C1qA [2, 3]: 24%
decrease of synaptosomal TDP43 [2, 3]: 27%
decrease of total APC expression [2, 3]: 29%
increase in IP3R1 expression [2, 3]: 101%
increase of 7-dehydrocholesterol reductase (7DHCR) [2, 3]: 24%
increase of P2Y1 receptor expression [2, 3]: 31%
increase of inhibitory phosphorylation of S6 kinase (S6K) [2, 3]: 47%
increase of inhibitory phosphorylation of glycogen synthase kinase 3β (GSK3β) [2, 3]: 75%
increase of steroidogenic acute regulatory (StAR) protein [2, 3]: 165%
Response to Suramin KO-Sur/KO-Sal: Nicotinic Acetylcholine Receptor alpha 7/nAchR7 [2, 4]: No effect
Response to Suramin KO-Sur/KO-Sal: P2X7 [2, 4]: No effect
Response to Suramin KO-Sur/KO-Sal: P2Y2 [2, 4]: No effect
Response to Suramin KO-Sur/KO-Sal: pCAMKII(Thr286) [2, 4]: No effect
Response to Suramin KO-Sur/KO-Sal: pERK1/2(Thr202/Tyr204) [2, 4]: No effect
increase of PPARβ expression ([2]; purified brain synaptosomes, suramin vs saline): 34%
